{"source": "patent US20080206819A1", "about": "“Intensified Perfusion Production Method” (priority 2006, published 2008)", "key": {"recombinant CHO cells [1]": {"system": "recombinant CHO cells", "details": "sodium butyrate added in fluidized bed bioreactor; cited from earlier work"}, "recombinant CHO cells [2]": {"system": "recombinant CHO cells", "details": "perfusion culture; end of the production run, in most cases; cited from earlier work"}, "[3]": {"system": "CHO (Chinese Hamster Ovary) cell-derived cell line", "assay": "Average daily recombinant protein production using RaMP, Example 5", "format": "cell-based", "protocol": "Samples of harvested media were taken from the daily harvest and frozen. At the end of the production run, the frozen daily samples were tested using an anti-IgG (recognizing only intact IgG) ELISA assay in order to determine the protein yields. FIG. 1 is a graphical representation of the average daily yield of recombinant protein from both traditional perfusion and RaMP methods.\nCells were seeded at 5×10^5 cells/ml and were allowed to grow in the bioreactor for 6 days before the first harvest of recombinant protein on day 7. Conditions for this growth period are similar to those described in Example 1 above. Cells were grown in RBM12.1 media with a perfusion rate of 1 to 1.5 v/day. 1 mM sodium butyrate (final concentration) was added to perfusion medium and was perfused into the bioreactor on day 8. […] 2 mM sodium butyrate (final concentration) was added to the perfusion media and was perfused into the bioreactor on day 11. Cell viability was monitored daily by pulling samples from the bioreactor and trypan blue live/dead staining. Over the production run, the cell density reached upwards of 4.5×10^7 cells/ml. Using the RaMP method, the cell viability remained above 85% viable cells even with the sustained concentration of 2 mM sodium butyrate in the media. The average daily recombinant protein production reached over 0.6 g/L/day."}, "[4]": {"system": "Chinese hamster ovary (CHO) cell line", "assay": "Effect of mode of sodium butyrate addition (bolus vs. gradual ramping) on cell viability", "format": "cell-based", "protocol": "In order to investigate if the method used to deliver sodium butyrate into the cell culture bioreactor would effect cell viability, two modes of delivery were tested: bolus introduction of the desired sodium butyrate concentration and the gradual “ramping” to the desired sodium butyrate concentration. The growth period conditions were identical to those described above.\nOn Day 9, sodium butyrate was introduced into the bioreactors. In the bolus condition, 2 mM sodium butyrate (final concentration) was added to the medium and perfused into the bioreactor. […] The maximal concentration of sodium butyrate was maintained for the rest of the production run. Cell viability was determined by pulling samples from each bioreactor and trypan blue staining for live/dead cells. After the bolus addition of 2 mM sodium butyrate, the cell viability started to decline (after day 9). The bioreactor for the bolus condition was stopped on day 19 after the viability dropped below 50%. In contrast, the gradual ramping of sodium butyrate from day 9 to day 14 maintained high cell viability (over 85%)."}, "[5]": {"system": "CHO (Chinese Hamster Ovary) cell-derived cell line", "assay": "Average daily specific productivity: perfusion, fed-batch and RaMP", "format": "cell-based", "details": "for Average Daily Specific Productivity: 10 day production run", "excerpt": "Average daily specific productivity was compared using traditional perfusion, fed-batch with sodium butyrate induction and RaMP processes. The same production cell line was used for all three methods. Culture conditions for all three methods were similar to those described in Example 1 above. Cells were inoculated at 5×10^5 cells/ml and were allowed to grow to the desired concentration before induction with sodium butyrate. Fed-batch culture was induced with sodium butyrate as a bolus addition. Fed-batch specific productivity calculations were normalized and averaged for new protein production per day. Average daily specific productivity was calculated using production yields from a 10 day production run. Maximal sodium butyrate concentration was 2 mM for both fed-batch and RaMP processes. Average daily yields using the RaMP method was approximately 6 times more than fed-batch or traditional perfusion methods."}, "[6]": {"system": "CHO (Chinese Hamster Ovary) cell-derived cell line", "assay": "Cell viability during production period, Example 4 (RaMP)", "format": "cell-based", "details": "RaMP: 0.5 mM sodium butyrate day 10, 1.0 mM day 14; entire production period", "protocol": "Cells were seeded at 5×10^5 cells/ml and were allowed to grow for 9 days in the bioreactor before induction with butyrate for the RaMP method. Conditions for this growth period are similar to those described in Example 1 above. On day 10, media containing 0.5 mM sodium butyrate was perfused into the bioreactor. On day 14, media containing 1.0 mM sodium butyrate was perfused into the bioreactor.\nCell viability was monitored daily throughout the production period. Over the entire production period, cell viability remained high and never dropped below 85% for both traditional perfusion and RaMP methods."}, "[7]": {"system": "CHO (Chinese Hamster Ovary) cell-derived cell line", "assay": "Cell viability with gradual NaB ramping in perfusion culture (summary experiment)", "format": "cell-based", "protocol": "In one experiment, 0.5 mM NaB (final concentration) was introduced into the bioreactor by perfusing RBM12.1 medium with 0.5 mM NaB into the bioreactor on day 7 of the production run. On day 10, the bioreactor was perfused with RBM 12.1 medium with 1.0 mM NaB. On day 13, the bioreactor was perfused with RBM12.1 medium with 1.5 mM NaB."}}, "data": [{"smiles": "CCCC(=O)[O-].[Na+]", "note": "[sodium butyrate]", "values": [{"measurement": "cell growth and cell concentration", "setting": "recombinant CHO cells [1]", "result": "the cells stopped growing and cell concentration declined"}, {"measurement": "cell viability", "setting": "recombinant CHO cells [2]", "result": "less than 45%"}, {"measurement": "average daily recombinant protein production", "setting": "[3]; 1 mM then 2 mM sodium butyrate, reached", "result": "over 0.6 g/L/day"}, {"measurement": "Average total production", "setting": "[3]; sodium butyrate 1 mM, day 8 in culture", "result": 102, "unit": "mg/L/day"}, {"measurement": "Average total production", "setting": "[3]; sodium butyrate 1 mM, day 9 in culture", "result": 159, "unit": "mg/L/day"}, {"measurement": "Average total production", "setting": "[3]; sodium butyrate 1 mM, day 10 in culture", "result": 343, "unit": "mg/L/day"}, {"measurement": "Average total production", "setting": "[3]; sodium butyrate 2 mM, day 11 in culture", "result": 381, "unit": "mg/L/day"}, {"measurement": "Average total production", "setting": "[3]; sodium butyrate 2 mM, day 12 in culture", "result": 332, "unit": "mg/L/day"}, {"measurement": "Average total production", "setting": "[3]; sodium butyrate 2 mM, day 13 in culture", "result": 590, "unit": "mg/L/day"}, {"measurement": "Average total production", "setting": "[3]; sodium butyrate 2 mM, day 14 in culture", "result": 498, "unit": "mg/L/day"}, {"measurement": "Average total production", "setting": "[3]; sodium butyrate 2 mM, day 15 in culture", "result": 577, "unit": "mg/L/day"}, {"measurement": "Average total production", "setting": "[3]; sodium butyrate 2 mM, day 16 in culture", "result": 549, "unit": "mg/L/day"}, {"measurement": "Average total production", "setting": "[3]; sodium butyrate 2 mM, day 17 in culture", "result": 526, "unit": "mg/L/day"}, {"measurement": "Average total production", "setting": "[3]; sodium butyrate 2 mM, day 18 in culture", "result": 684, "unit": "mg/L/day"}, {"measurement": "% viable cells (bolus)", "setting": "[4]; bolus 2 mM from Day 9, day 10 in culture", "result": 76, "unit": "%"}, {"measurement": "% viable cells (bolus)", "setting": "[4]; bolus 2 mM from Day 9, day 11 in culture", "result": 73, "unit": "%"}, {"measurement": "% viable cells (bolus)", "setting": "[4]; bolus 2 mM from Day 9, day 12 in culture", "result": 76, "unit": "%"}, {"measurement": "% viable cells (bolus)", "setting": "[4]; bolus 2 mM from Day 9, day 13 in culture", "result": 72, "unit": "%"}, {"measurement": "% viable cells (bolus)", "setting": "[4]; bolus 2 mM from Day 9, day 14 in culture", "result": 72, "unit": "%"}, {"measurement": "% viable cells (bolus)", "setting": "[4]; bolus 2 mM from Day 9, day 15 in culture", "result": 84, "unit": "%"}, {"measurement": "% viable cells (bolus)", "setting": "[4]; bolus 2 mM from Day 9, day 16 in culture", "result": 79, "unit": "%"}, {"measurement": "% viable cells (bolus)", "setting": "[4]; bolus 2 mM from Day 9, day 17 in culture", "result": 76, "unit": "%"}, {"measurement": "% viable cells (bolus)", "setting": "[4]; bolus 2 mM from Day 9, day 18 in culture", "result": 80, "unit": "%"}, {"measurement": "% viable cells (bolus)", "setting": "[4]; bolus 2 mM from Day 9, day 19 in culture", "result": 44, "unit": "%"}, {"measurement": "% viable cells (bolus)", "setting": "[4]; bolus 2 mM sodium butyrate introduced Day 9, day 9 in culture", "result": 89, "unit": "%"}, {"measurement": "cell viability", "setting": "[4]; bolus 2 mM sodium butyrate, day 19, bioreactor stopped", "result": "below 50%"}, {"measurement": "% viable cells (RaMP)", "setting": "[4]; gradual ramping from 0.5 mM Day 9 to maximal by Day 14, day 10 in culture", "result": 97, "unit": "%"}, {"measurement": "% viable cells (RaMP)", "setting": "[4]; gradual ramping from 0.5 mM Day 9 to maximal by Day 14, day 11 in culture", "result": 97.6, "unit": "%"}, {"measurement": "% viable cells (RaMP)", "setting": "[4]; gradual ramping from 0.5 mM Day 9 to maximal by Day 14, day 12 in culture", "result": 96.4, "unit": "%"}, {"measurement": "% viable cells (RaMP)", "setting": "[4]; gradual ramping from 0.5 mM Day 9 to maximal by Day 14, day 13 in culture", "result": 97.1, "unit": "%"}, {"measurement": "% viable cells (RaMP)", "setting": "[4]; gradual ramping from 0.5 mM Day 9 to maximal by Day 14, day 14 in culture", "result": 95.7, "unit": "%"}, {"measurement": "cell viability", "setting": "[4]; gradual ramping of sodium butyrate from day 9 to day 14", "result": "over 85%"}, {"measurement": "% viable cells (RaMP)", "setting": "[4]; maximal concentration maintained after ramping, day 15 in culture", "result": 96.7, "unit": "%"}, {"measurement": "% viable cells (RaMP)", "setting": "[4]; maximal concentration maintained after ramping, day 16 in culture", "result": 97.2, "unit": "%"}, {"measurement": "% viable cells (RaMP)", "setting": "[4]; maximal concentration maintained after ramping, day 17 in culture", "result": 96.4, "unit": "%"}, {"measurement": "% viable cells (RaMP)", "setting": "[4]; maximal concentration maintained after ramping, day 18 in culture", "result": 97, "unit": "%"}, {"measurement": "% viable cells (RaMP)", "setting": "[4]; maximal concentration maintained after ramping, day 19 in culture", "result": 96.9, "unit": "%"}, {"measurement": "% viable cells (RaMP)", "setting": "[4]; maximal concentration maintained after ramping, day 20 in culture", "result": 95.8, "unit": "%"}, {"measurement": "% viable cells (RaMP)", "setting": "[4]; maximal concentration maintained after ramping, day 21 in culture", "result": 95.4, "unit": "%"}, {"measurement": "% viable cells (RaMP)", "setting": "[4]; maximal concentration maintained after ramping, day 22 in culture", "result": 98.7, "unit": "%"}, {"measurement": "% viable cells (RaMP)", "setting": "[4]; maximal concentration maintained after ramping, day 23 in culture", "result": 90.6, "unit": "%"}, {"measurement": "% viable cells (RaMP)", "setting": "[4]; maximal concentration maintained after ramping, day 24 in culture", "result": 89.7, "unit": "%"}, {"measurement": "% viable cells (RaMP)", "setting": "[4]; maximal concentration maintained after ramping, day 25 in culture", "result": 88.8, "unit": "%"}, {"measurement": "% viable cells (RaMP)", "setting": "[4]; sodium butyrate from 0.5 mM on Day 9, gradually increased to maximal concentration by Day 14, day 9 in culture", "result": 97.4, "unit": "%"}, {"measurement": "Average Daily Specific Productivity", "setting": "[5]; Fed-batch, sodium butyrate bolus addition, maximal 2 mM", "result": "0.10 g/L/day ± 0.03"}, {"measurement": "Average Daily Specific Productivity", "setting": "[5]; RaMP, maximal sodium butyrate 2 mM", "result": "0.64 g/L/day ± 0.07"}, {"measurement": "Average daily yields using RaMP relative to fed-batch or traditional perfusion methods", "setting": "[5]; maximal sodium butyrate 2 mM", "result": "approximately 6 times"}, {"measurement": "cell viability", "setting": "[6]", "result": "≥ 85", "unit": "%"}, {"measurement": "cell viability", "setting": "[7]; 0.5 mM NaB day 7, 1.0 mM day 10, 1.5 mM day 13", "result": "did not decrease"}, {"measurement": "cell viability", "setting": "[7]; gradual ramping of sodium butyrate to desired maximal concentration, compared to bolus addition", "result": "over 85%"}]}]}
